Measurements from patent US10508077B2 (FORMA Therapeutics, Inc., priority 2015, dated 2019).

How the values were obtained:
[1] = biological target: T1, Recombinant N-terminal GST tag full-length human HDAC8 (Homo sapiens, UniProt Q9BY41); assay: HDAC8 probe binding assay, time resolved fluorescence (TRF); conditions: fluorescein labeled pan-HDAC inhibitor probe, 16 hours incubation, compounds listed under IC50 range headings
T1 construct: Recombinant N-terminal GST tag full-length human HDAC8; purchased SignalChem H90-30G-1000; host or cells: Sf9 insect cells (baculovirus)
T1 sequence (Q9BY41 1-377): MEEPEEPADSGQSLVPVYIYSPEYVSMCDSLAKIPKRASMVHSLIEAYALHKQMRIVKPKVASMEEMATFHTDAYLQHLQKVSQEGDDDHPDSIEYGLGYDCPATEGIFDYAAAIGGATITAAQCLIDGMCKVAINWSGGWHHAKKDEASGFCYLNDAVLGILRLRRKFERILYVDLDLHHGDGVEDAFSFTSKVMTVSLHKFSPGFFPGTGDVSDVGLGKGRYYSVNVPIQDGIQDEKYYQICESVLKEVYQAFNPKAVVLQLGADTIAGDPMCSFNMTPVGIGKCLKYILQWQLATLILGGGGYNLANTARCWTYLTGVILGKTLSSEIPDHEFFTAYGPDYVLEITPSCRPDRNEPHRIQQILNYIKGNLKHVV
Outline: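 TR-FRET probe displacement using GST-tagged full-length human HDAC8 (Sf9-expressed, 2.5 nM) with 1.5 nM fluorescein-labelled pan-HDAC inhibitor probe and anti-GST terbium, in HEPES pH 7.5 buffer with GSH, BGG, Triton X-100. Compounds 25 μM–1.3 nM, 10-point; 16 h at room temperature. IC50 from 4-parameter fit of % inhibition versus no-enzyme and DMSO controls.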

[2] = biological target: T2, Full length human recombinant HDAC8 protein (Homo sapiens, UniProt Q9BY41); assay: In vitro histone deacetylase assay: enzymatic HDAC8 assay, electrophoretic mobility shift; assay type: biochemical; conditions: substrate RHKK(Ac)-NH2, 1 nM enzyme, compounds listed under IC50 range headings
T2 construct: Full length human recombinant HDAC8 protein was expressed in baculoviral system; made in house
T2 sequence (Q9BY41 1-377): T1 sequence (Q9BY41 1-377)
Outline: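 Baculovirus-expressed full-length human HDAC8 (1 nM) deacetylated 2 µM fluorescent RHKK(Ac)-NH2 peptide in pH 7.5 HEPES, 1% DMSO, at 25 °C, with 12 compound concentrations at 3× spacing. SDS-quenched; product and substrate resolved by microfluidic electrophoresis, P/(S+P) converted to percent inhibition, and IC50 obtained by 4-parameter fit.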

SMILES | IC50 [1] [nM] | IC50 [2] [nM]
CC(=O)N1CCCC12CCN(c1ccccc1/C=C/C(=O)NO)C2 (centres unmarked) [Example I-545] | ≤ 1000 | < 1000
CC(=O)N1CC2(CCCN2c2ccccc2/C=C/C(=O)NO)C1 [Example I-547, (E)-3-(2-(2-acetyl-2,5-diazaspiro[3.4]octan-5-yl)phenyl)-N-hydroxyacrylamide] | ≤ 1000 | < 1000
O=C(/C=C/c1cc(C(F)(F)F)ccc1NC(=O)c1ccccc1Oc1ccc(F)cc1)NO [Example I-556, 2-(4-fluorophenoxy)-N-{2-[(1E)-2-(hydroxycarbamoyl)eth-1-en-1-yl]-4-(trifluoromethyl)phenyl}benazmide] | ≤ 1000 | < 1000
O=C(/C=C/c1cc(OC(F)(F)F)ccc1NC(=O)c1ccccc1Oc1ccc(F)cc1)NO [Example I-557, 2-(4-fluorophenoxy)-N-{2-[(1E)-2-(hydroxycarbamoyl)eth-1-en-1-yl]-4-(trifluoromethoxy)phenyl}benzamide] | ≤ 1000 | < 1000
O=C(/C=C/c1ccccc1C(=O)N1CCCC1)NO [II-15, (E)-N-hydroxy-3-(2-(pyrrolidine-1-carbonyl)phenyl)acrylamide] | ≤ 1000 | < 1000
O=C(/C=C/c1ccccc1C(=O)N1CCN(c2cnccn2)CC1)NO [II-22, (E)-N-hydroxy-3-(2-(4-(pyrazin-2-yl)piperazine-1-carbonyl)phenyl)acrylamide] | ≤ 1000 | < 1000
O=C(/C=C/c1ccccc1C(=O)N1CCC[C@H](Cn2ccnc2)C1)NO [II-27, (R,E)-3-(2-(3-((1H-imidazol-1-yl)methyl)piperidine-1-carbonyl)phenyl)-N-hydroxyacrylamide] | ≤ 1000 | < 1000
O=C(/C=C/c1ccccc1C(=O)N1CCC(F)(F)C1)NO [II-28, (E)-3-(2-(3,3-difluoropyrrolidine-1-carbonyl)phenyl)-N-hydroxyacrylamide] | ≤ 1000 | < 1000
O=C(/C=C/c1ccccc1S(=O)(=O)C1CCN(C(=O)Cc2ccc(Cl)cc2)CC1)NO [II-29] | ≤ 1000 | < 1000
COc1ccc(/C=C/C(=O)NO)c(NC(=O)c2ccccc2Oc2ccc(Cl)cc2F)c1 [II-37, 2-(4-chloro-2-fluorophenoxy)-N-{2-[(1E)-2-(hydroxycarbamoyl)eth-1-en-1-yl]-5-methoxyphenyl}benzamide] | ≤ 1000 | < 1000
